Reference: patent publication US5169634A, “Pharmaceutical dosage form for the medication of fish” (priority 1988, dated 1992)

Columns and labels:
Format in all cases: cell-based
[1] = system: Yersinia ruckeri, serotype 2; experiment: Minimal inhibitory concentration, Yersinia ruckeri, serotype 2
[2] = system: Yersinia ruckeri, serotype 3; experiment: Minimal inhibitory concentration, Yersinia ruckeri, serotype 3
[3] = system: Vibrio anguillarum, serotype 1; experiment: Minimal inhibitory concentration, Vibrio anguillarum, serotype 1
Vibrio salmonicidia = experiment: Minimal inhibitory concentration, Vibrio salmonicidia

Row | SMILES | Minimal Inhibitory Concentration [1] | Minimal Inhibitory Concentration [2] | Minimal Inhibitory Concentration [3] | Minimal Inhibitory Concentration (Vibrio salmonicidia)
1 | CC1CCc2cc(F)cc3c(=O)c(C(=O)O)cn1c23 (centres unmarked) [Flumequine, flumequine] | 1.2 | 0.25 | 0.035 | 0.035
2 | CCn1cc(C(=O)O)c(=O)c2cc3c(cc21)OCO3 [Oxolinic Acid, oxolinic acid] | 1.0 | 0.25 | 0.035 | 0.07
